The source of these data is ChEMBL document CHEMBL2073793, “An in vitro evaluation of human cytochrome P450 3A4 and P-glycoprotein inhibition by garlic” (J Pharm Pharm Sci, 2001).

In this data set the target is ATP-dependent translocase ABCB1 (Homo sapiens, UniProt P08183). As to the kind of experiment: TP_TRANSPORTER: ATP hydrolysis GENTEST. The class given is functional.
Chain of ATP-dependent translocase ABCB1 (P08183 whole entry): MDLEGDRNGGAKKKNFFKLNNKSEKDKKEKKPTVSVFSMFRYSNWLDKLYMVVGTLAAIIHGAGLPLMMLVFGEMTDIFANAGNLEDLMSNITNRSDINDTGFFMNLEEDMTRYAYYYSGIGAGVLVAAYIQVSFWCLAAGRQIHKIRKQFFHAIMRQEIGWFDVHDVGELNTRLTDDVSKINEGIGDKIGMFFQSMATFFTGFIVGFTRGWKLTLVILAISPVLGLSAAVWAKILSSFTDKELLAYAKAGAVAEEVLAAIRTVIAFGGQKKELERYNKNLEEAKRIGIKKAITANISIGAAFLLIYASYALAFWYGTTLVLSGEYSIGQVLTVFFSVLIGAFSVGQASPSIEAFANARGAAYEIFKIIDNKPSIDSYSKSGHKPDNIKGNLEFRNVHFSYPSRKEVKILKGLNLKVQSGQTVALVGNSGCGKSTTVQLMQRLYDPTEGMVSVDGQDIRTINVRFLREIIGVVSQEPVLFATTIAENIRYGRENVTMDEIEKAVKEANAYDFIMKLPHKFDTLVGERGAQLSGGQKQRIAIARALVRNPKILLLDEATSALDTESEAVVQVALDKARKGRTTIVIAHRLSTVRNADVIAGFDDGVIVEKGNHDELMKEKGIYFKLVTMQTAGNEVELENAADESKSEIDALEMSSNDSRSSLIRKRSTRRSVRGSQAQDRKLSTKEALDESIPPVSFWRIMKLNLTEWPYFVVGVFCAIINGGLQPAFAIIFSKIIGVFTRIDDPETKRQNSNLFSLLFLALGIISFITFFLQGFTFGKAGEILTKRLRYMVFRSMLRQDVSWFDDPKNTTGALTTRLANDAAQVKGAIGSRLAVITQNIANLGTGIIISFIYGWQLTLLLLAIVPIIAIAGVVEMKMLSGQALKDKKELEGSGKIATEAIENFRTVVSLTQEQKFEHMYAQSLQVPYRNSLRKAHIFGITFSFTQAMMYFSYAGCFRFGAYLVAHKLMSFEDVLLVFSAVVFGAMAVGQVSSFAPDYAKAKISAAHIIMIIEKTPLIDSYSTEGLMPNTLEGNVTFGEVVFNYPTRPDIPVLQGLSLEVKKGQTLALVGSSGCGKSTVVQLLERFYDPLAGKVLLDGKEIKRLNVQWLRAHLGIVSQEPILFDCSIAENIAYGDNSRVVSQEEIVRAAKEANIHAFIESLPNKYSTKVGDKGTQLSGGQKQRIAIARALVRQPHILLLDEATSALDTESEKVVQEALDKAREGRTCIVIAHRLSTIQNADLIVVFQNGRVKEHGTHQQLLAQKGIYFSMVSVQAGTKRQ

In the case of GARLIC, the Activity entry was “substrate [+]”.
